# Reference: patent publication US20140120060A1, “TREATMENT OF RHEUMATOID ARTHRITIS AND ASTHMA USING PI3 KINASE INHIBITORS” (INFINITY PHARMACEUTICALS, INC., priority 2012, published 2014)
# Test system: B cell
# Test: B cell proliferation
# Assay type: cell-based
row,SMILES,EC50 [nM]
1,Cc1cccc2cc(Cn3nc(-c4cccc(O)c4)c4c(N)ncnc43)n(-c3ccccc3C(C)C)c(=O)c12 [Compound 82],< 100
2,Cc1ccccc1-n1c(Cn2nc(-c3ccc(F)c(O)c3)c3c(N)ncnc32)cc2ccccc2c1=O [Compound 54],< 100
3,Cc1cccc2cc(Cn3nc(C#C[C@@H](C)O)c4c(N)ncnc43)n(C3CC3)c(=O)c12 [Compound 100],< 1000
4,Cc1ccccc1-n1c(Cn2nc(-c3cnc4[nH]ccc4c3)c3c(N)ncnc32)cc2cccc(C)c2c1=O [Compound 48],< 100
5,Cc1cccc2cc(C(C)Nc3ncnc4[nH]cnc34)n(CCN3CCOCC3)c(=O)c12 (stereo not drawn) [Compound 232],< 100
6,CC(=O)Nc1nc2ccc(-c3nn(Cc4cc5cccc(Cl)c5c(=O)n4C4CC4)c4ncnc(N)c34)cc2s1 [Compound 156],< 100
7,Cc1cccc2cc([C@H](C)Nc3ncnc4[nH]cnc34)n(C3CCC3)c(=O)c12 [Compound 198],< 100
8,Cc1cccc2cc(Cn3nc(I)c4c(N)ncnc43)n(C3CCCCC3)c(=O)c12 [Compound 87],< 10000
9,Cc1cccc2cc(Cn3nc(-c4cn[nH]c4)c4c(N)ncnc43)n(-c3cccc(F)c3)c(=O)c12 [Compound 166],< 100
10,Cc1ccccc1-n1c(Cn2nc(-c3ccc4nc(N)oc4c3)c3c(N)ncnc32)cc2cccc(C)c2c1=O [Compound 243],< 1000
11,Cc1cccc2cc(Cn3nc(I)c4c(N)ncnc43)n(C3CC3)c(=O)c12 [Compound 86],< 1000
12,Cc1cccc2cc(Cn3nc(-c4cn[nH]c4)c4c(N)ncnc43)n(-c3ccccc3)c(=O)c12 [Compound 206],< 100
13,Cc1cccc2cc(Cn3nc(-c4cccc(F)c4)c4c(N)ncnc43)n(-c3ccccc3F)c(=O)c12 [Compound 40],< 10000
14,Cc1ccccc1-n1c(Cn2nc(-c3cn[nH]c3)c3c(N)ncnc32)cc2ccccc2c1=O [Compound 187],< 100
15,Cc1ccccc1-n1c(Cn2nc(C#C[C@@H](C)O)c3c(N)ncnc32)cc2cccc(C)c2c1=O [Compound 37],< 100
16,Cc1ccccc1-n1c(Cn2nc(CC#N)c3c(N)ncnc32)cc2cccc(C)c2c1=O [Compound 312],< 1000
17,COc1cc(-c2nn(Cc3cc4cccc(C)c4c(=O)n3-c3ccccc3C)c3ncnc(N)c23)ccc1Cl [Compound 21],< 1000
18,CC(=O)Nc1nc2ccc(-c3nn(Cc4cc5cccc(C)c5c(=O)n4C)c4ncnc(N)c34)cc2s1 [Compound 153],< 100
19,Cc1cccc2cc(Cn3nc(C#C[C@@H](C)O)c4c(N)ncnc43)n(C(C)C)c(=O)c12 [Compound 61],< 1000
20,Cc1ccccc1-n1c(Cn2nc(C(N)=O)c3c(N)ncnc32)cc2cccc(C)c2c1=O [Compound 298],< 100
21,Cc1cccc2cc(C(C)Nc3ncnc4[nH]cnc34)n(C3CCCC3)c(=O)c12 (stereo not drawn) [Compound 231],< 100
22,Cc1cccc2cc(Cn3nc(CF)c4c(N)ncnc43)n(-c3ccccc3)c(=O)c12 [Compound 311],< 100
23,CC(C)n1c(Cn2nc(-c3cccc(O)c3)c3c(N)ncnc32)cc2ccccc2c1=O [Compound 135],< 1000
24,CC(C)n1c(Cn2nc(-c3cc(O)cc(F)c3)c3c(N)ncnc32)cc2cccc(Cl)c2c1=O [Compound 138],< 100
25,CCC(Nc1ncnc2[nH]cnc12)c1cc2cccc(C)c2c(=O)n1-c1ccc(F)cc1 (stereo not drawn) [Compound 223],< 100

row,SMILES,EC50 [nM]
1,Cc1cccc2cc(Cn3nc(-c4cccc(O)c4)c4c(N)ncnc43)n(C3CCCCC3)c(=O)c12 [Compound 111],< 1000
2,Cc1ccccc1-n1c(Cn2nc(-c3ccc(O)c(F)c3)c3c(N)ncnc32)cc2cccc(C)c2c1=O [Compound 30],< 1000
3,Cc1cccc2cc(Cn3nc(-c4cccc(O)c4)c4c(N)ncnc43)n(C3CC3)c(=O)c12 [Compound 102],< 100
4,Cc1ccccc1-n1c(C(C)Nc2ncnc3[nH]cnc23)cc2cccc(C)c2c1=O (stereo not drawn) [Compound 191],< 100
5,Cc1ccccc1-n1c(Cn2nc(-c3cc(O)cc(F)c3)c3c(N)ncnc32)cc2ccccc2c1=O [Compound 33],< 100
6,Cc1cccc2cc(Cn3nc(-c4ccc(F)c(O)c4)c4c(N)ncnc43)n(C(C)C)c(=O)c12 [Compound 67],< 100
7,Cc1cccc2cc(C(C)Nc3ncnc4[nH]cnc34)n(-c3cc(F)cc(F)c3)c(=O)c12 (stereo not drawn) [Compound 222],< 100
8,Nc1ncnc2c1c(-c1cc(O)cc(F)c1)nn2Cc1cc2cccc(Cl)c2c(=O)n1C1CC1 [Compound 142],< 100
9,CCc1ccccc1-n1c(Cn2nc(-c3cc(O)cc(F)c3)c3c(N)ncnc32)cc2cccc(C)c2c1=O [Compound 89],< 100
10,Cc1ccccc1-n1c(Cn2nc(-c3ccc(Cl)cc3)c3c(N)ncnc32)cc2cccc(C)c2c1=O [Compound 49],< 10000
11,Cc1ccccc1-n1c(Cn2nc(-c3cccc(O)c3)c3c(N)ncnc32)cc2cccc(C)c2c1=O [Compound 13],< 100
12,Cc1cccc2cc(C(C)Nc3ncnc4[nH]cnc34)n(-c3ccccc3)c(=O)c12 (stereo not drawn) [Compound 210],< 100
13,CCC(Nc1ncnc2[nH]cnc12)c1cc2cccc(C)c2c(=O)n1C1CCC1 (stereo not drawn) [Compound 212],< 1000
14,Cc1ccccc1-n1c(Cn2nc(CF)c3c(N)ncnc32)cc2cccc(C)c2c1=O [Compound 310],< 100
15,Cc1cccnc1-n1c(Cn2nc(-c3cc(O)cc(F)c3)c3c(N)ncnc32)cc2cccc(C)c2c1=O [Compound 16],< 100
16,Cc1cccc2cc(Cn3nc(-c4ccc5oc(N)nc5c4)c4c(N)ncnc43)n(-c3ccccc3)c(=O)c12 [Compound 205],< 100
17,Cc1ccccc1-n1c(Cn2nc(-c3ccc4nc(N)[nH]c4c3)c3c(N)ncnc32)cc2cccc(C)c2c1=O [Compound 295],< 100
18,Cc1cccc2cc(Cn3nc(-c4cc(O)cc(F)c4)c4c(N)ncnc43)n(-c3ccccc3OCCN3CCOCC3)c(=O)c12 [Compound 108],< 100
19,CC(Nc1ncnc2[nH]cnc12)c1cc2ccccc2c(=O)n1-c1ccccc1 (stereo not drawn) [Compound 220],< 100
20,Cc1cccc2cc(Cn3nc(-c4cccc(O)c4)c4c(N)ncnc43)n(-c3ccccc3O)c(=O)c12 [Compound 81],< 100
21,Cc1cccc2cc(Cn3nc(C#C[C@@H](C)O)c4c(N)ncnc43)n(-c3ccccc3O)c(=O)c12 [Compound 91],< 1000
22,Cc1cccc2cc(Cn3nc(-c4cccc(O)c4)c4c(N)ncnc43)n(-c3ccccc3OCCN3CCOCC3)c(=O)c12 [Compound 109],< 100
23,Cc1cccc2cc(Cn3nc(-c4ccc(Cl)c(O)c4)c4c(N)ncnc43)n(C(C)C)c(=O)c12 [Compound 123],< 100
24,CC(C)n1c(Cn2nc(-c3cccc(O)c3)c3c(N)ncnc32)cc2cccc(Cl)c2c1=O [Compound 137],< 100
25,Cc1ccccc1-n1c(Cn2nc(-c3ccc4nc(N)ncc4c3)c3c(N)ncnc32)cc2cccc(C)c2c1=O [Compound 150],< 100

row,SMILES,EC50 [nM]
1,CC(C)n1c(Cn2nc(-c3cc(O)cc(F)c3)c3c(N)ncnc32)cc2cccc(F)c2c1=O [Compound 134],< 100
2,Cc1cccc2cc(Cn3nc(-c4cc(O)cc(F)c4)c4c(N)ncnc43)n(C3CCCC3)c(=O)c12 [Compound 63],< 100
3,COc1ccccc1-n1c(Cn2nc(C#C[C@@H](C)O)c3c(N)ncnc32)cc2cccc(C)c2c1=O [Compound 80],< 1000
4,Cc1cccc2cc([C@@H](C)Nc3ncnc4[nH]cnc34)n(C3CC3)c(=O)c12 [Compound 199],> 10000
5,Cc1cccnc1-n1c(Cn2nc(C#C[C@@H](C)O)c3c(N)ncnc32)cc2cccc(C)c2c1=O [Compound 69],< 1000
6,Cc1cccc2cc([C@H](C)Nc3ncnc4[nH]cc(C#N)c34)n(C3CC3)c(=O)c12 [Compound 289],< 100
7,Cc1cccc2cc(Cn3nc(-c4cccc(O)c4)c4c(N)ncnc43)n(-c3ccccc3Cl)c(=O)c12 [Compound 96],< 100
8,Cc1ccccc1-n1c(Cn2nc(I)c3c(N)ncnc32)cc2cccc(F)c2c1=O [Compound 42],< 1000
9,CC(=O)Nc1nc2cc(-c3nn(Cc4cc5cccc(C)c5c(=O)n4-c4ccccc4C)c4ncnc(N)c34)ccc2o1 [Compound 251],< 100
10,CCC(Nc1ncnc2[nH]cnc12)c1cc2cccc(C)c2c(=O)n1-c1ccccc1C (stereo not drawn) [Compound 202],< 100
11,C=Cc1nn(Cc2cc3cccc(C)c3c(=O)n2-c2ccccc2C)c2ncnc(N)c12 [Compound 180],< 100
12,Cc1cccc2cc(Cn3nc(C#N)c4c(N)ncnc43)n(-c3ccccc3F)c(=O)c12 [Compound 169],< 1000
13,Cc1cccc2cc(Cn3nc(-c4cc(O)cc(F)c4)c4c(N)ncnc43)n(-c3ccccc3O)c(=O)c12 [Compound 90],< 100
14,Cc1ccncc1-n1c(Cn2nc(I)c3c(N)ncnc32)cc2cccc(C)c2c1=O [Compound 78],< 1000
15,Cc1cccc2cc(Cn3nc(-c4cc(O)cc(F)c4)c4c(N)ncnc43)n(-c3ccccc3Cl)c(=O)c12 [Compound 97],< 100
16,CCn1c(Cn2nc(-c3ccc4nc(NC(C)=O)sc4c3)c3c(N)ncnc32)cc2cccc(C)c2c1=O [Compound 176],< 100
17,Cc1cccc2cc(Cn3nc(-c4ccc5nc(N)[nH]c5c4)c4c(N)ncnc43)n(-c3ccccc3)c(=O)c12 [Compound 302],< 100
18,COc1ccc(-c2nn(Cc3cc4cccc(C)c4c(=O)n3-c3ccccc3F)c3ncnc(N)c23)cc1OC [Compound 47],< 1000
19,Cc1cccc2cc([C@H](C)Nc3ncnc4[nH]cnc34)n(C(C)C)c(=O)c12 [Compound 230],< 100
20,Cc1ccccc1-n1c(Cn2nc(Br)c3c(N)ncnc32)cc2cccc(C)c2c1=O [Compound 19],< 1000
21,COc1ccccc1-n1c(Cn2nc(-c3cccc(O)c3)c3c(N)ncnc32)cc2cccc(C)c2c1=O [Compound 74],< 100
22,Cc1cccnc1-n1c(Cn2nc(Cl)c3c(N)ncnc32)cc2cccc(C)c2c1=O [Compound 18],< 1000
23,Cc1cccc2cc(Cn3nc(-c4cn[nH]c4)c4c(N)ncnc43)n(-c3ccccc3C(C)C)c(=O)c12 [Compound 185],< 100
24,CCn1c(Cn2nc(-c3cccc(O)c3)c3c(N)ncnc32)cc2cccc(C)c2c1=O [Compound 126],< 100
25,Cc1cccc2cc(Cn3nc(C#C[C@@H](C)O)c4c(N)ncnc43)n(-c3ccccc3F)c(=O)c12 [Compound 28],< 1000
